# pIC50: −log10 of the molar value.
# Assays:
# [1] = system: SRS-A-induced constriction of the guinea pig ileum; assay: Guinea Pig Ileum, In Vitro (inhibition of SRS-A-induced constriction); format: cell-based; settings: Cavia porcellus; SRS-A-induced constriction; in vitro; read-out: Guinea Pig Ileum, IC50
# Experimental: The guinea pig ileum bioassay system has been described by Orange and Austen, Adv. Immunol. […] A 1.5 cm segment is removed from animals weighing 300-400 g. and suspended in an organ bath containing 10 ml. of Tyrodes solution with 10^-6 M atropine sulfate and 10^-6 M pyrilamine maleate. […] The SRS-A utilized in this screen is obtained by challenging chopped lung fragments from actively sensitized guinea pigs with egg albumin, in vitro. A dose-response curve to SRS-A challenge is established for the ileum. […] The drug concentration which inhibits, by 50%, the SRS-A-induced constriction of the guinea pig ileum is determined.
# [2] = target: T1, PAF receptor (dog platelets) (Canis lupus familiaris, UniProt A0A8I3NSH0); assay: PAF Radioreceptor Binding Assay; settings: 3H-PAF
# T1 construct: followed by 2×10^7 dog platelets; from tissue; host or cells: dog platelets, washed, intact
# T1 sequence (A0A8I3NSH0 1-343): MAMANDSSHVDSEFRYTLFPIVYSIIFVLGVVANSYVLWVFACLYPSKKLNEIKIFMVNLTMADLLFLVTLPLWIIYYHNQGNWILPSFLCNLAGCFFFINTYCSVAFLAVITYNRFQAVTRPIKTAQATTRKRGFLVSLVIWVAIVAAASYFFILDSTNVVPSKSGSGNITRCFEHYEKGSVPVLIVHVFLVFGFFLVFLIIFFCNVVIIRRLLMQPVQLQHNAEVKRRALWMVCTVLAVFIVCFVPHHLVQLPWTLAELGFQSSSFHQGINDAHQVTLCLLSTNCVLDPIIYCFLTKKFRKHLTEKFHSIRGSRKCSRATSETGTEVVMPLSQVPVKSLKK
# Experimental: Platelet rich plasma is prepared by centrifugation of citrate-treated dog blood. Acidification to pH 6.5 with 0.15M citric acid and centrifugation for 10 minutes at 1000 g yields a platelet pellet which is then washed by resuspension in EDTA-Phosphate Buffered Saline (PBS) and recentrifuged. The washed platelet preparation is adjusted to 2×10^7 platelets/50 μl in 0.1% BSA-PBS.
# To a […] microfuge tube containing 50 μl silicone oil (specific gravity 1.023) is added buffer, PAF standard or analog, or an extract to bring the aqueous volume to 150 μl. 50 μl of ^3 H-PAF (10,000 cpm, 45 Ci/mM) is added followed by 2×10^7 dog platelets. After mixing, incubating for 10 minutes at room temperature, and centrifuging for 1 minute in a Beckman Microfuge B (8000 g), the pellet is removed by clipping off the tip of the tube, solubilizing the platelets with 200 μl of 50% methanol, and counting in 10 ml of Aquasol. […] Results obtained with representative compounds of the present invention in this assay are summarized hereinafter in Table I.
SMILES,pIC50 [1],pIC50 [2]
CC(C)c1ccc2ncn(/C=C/C(=O)NCCCCc3cccnc3)c(=O)c2c1 [drawing 12],6.00,6.19
CC(C)c1ccc2ncn(/C=C/C(=O)NCCCCn3ccnc3)c(=O)c2c1 [drawing 15],5.30,< 6.00
CC(C)c1ccc2ncn(/C=C/C(=O)NCCCCc3ccccn3)c(=O)c2c1 [drawing 17],< 5.00,< 6.00

# From US4599336A, “Derivatives of (E)-3-(4-oxo-4H-quinazolin-3-yl)-2-propenamide” (Hoffmann-La Roche Inc., priority 1983, dated 1986)
